From ChEMBL document CHEMBL1128751, “Isolation and structure of the human cancer cell growth inhibitory cyclic decapeptides phakellistatins 7, 8 and 91,2” (1995)
Converted amounts (≈) assume the structure as drawn. Where a SMILES comes first, the peptide text is derived from it.

Tests used:
NCI = experiment: Overall panel averaged growth inhibitory concentration against the U. S. National Cancer Institute panel of sixty human cancer cell lines; format: functional
P388 = experiment: In vitro inhibition of growth of p388 cells; format: functional; details: Mus musculus, read-out: ED50 (the source's name)

## CC[C@H](C)[C@@H]1NC(=O)[C@@H]2CCCN2C(=O)[C@@H]2CCCN2C(=O)[C@H]([C@@H](C)CC)NC(=O)[C@H](Cc2ccc(O)cc2)NC(=O)[C@@H]2CCCN2C(=O)[C@@H]2CCCN2C(=O)[C@H](CC(C)C)NC(=O)[C@H](C)NC(=O)[C@H](Cc2ccccc2)NC1=O (cyclo(ALPPYIPPIF))
NCI
  GI50: 0.55 µM
P388
  EC50: 3 µg/mL (≈ 2.7 µM)

## CC[C@H](C)[C@@H]1NC(=O)[C@@H]2CCCN2C(=O)[C@@H]2CCCN2C(=O)[C@H](C(C)C)NC(=O)[C@H](Cc2ccc(O)cc2)NC(=O)[C@@H]2CCCN2C(=O)[C@@H]2CCCN2C(=O)[C@H](CC(C)C)NC(=O)[C@H](C(C)C)NC(=O)[C@H](Cc2ccccc2)NC1=O (cyclo(FVLPPYVPPI))
NCI
  GI50: > 10 µM
P388
  EC50: 4.1 µg/mL (≈ 3.65 µM)

## CC[C@H](C)[C@@H]1NC(=O)[C@@H]2CCCN2C(=O)[C@@H]2CCCN2C(=O)[C@H]([C@@H](C)CC)NC(=O)[C@H](Cc2ccc(O)cc2)NC(=O)[C@@H]2CCCN2C(=O)[C@@H]2CCCN2C(=O)[C@H](CC(C)C)NC(=O)[C@H](C(C)C)NC(=O)[C@H](Cc2ccccc2)NC1=O (cyclo(FVLPPYIPPI))
NCI
  GI50: > 10 µM
P388
  EC50: 2.9 µg/mL (≈ 2.55 µM)
